Measured values taken from US20250092052A1, “HETEROARYL DERIVATIVE COMPOUNDS, AND USES THEREOF” (VORONOI INC., priority 2023, published 2025).

biological target: Myt1-KD (Homo sapiens (Human), UniProt Q99640); assay: Thermal Shift Assay, compound binding to Myt1-KD; settings: 2 μM protein, 100 μM compound, Tm of compound minus Tm of DMSO
Method: The degree of compound binding to Myt1-KD was tested using a Thermal Shift Assay. Each protein was diluted to a concentration of 2 μM in 50 mM Tris (pH 7.5) with 100 μM of the compound. SYPRO™ Orange dye was added to the solution, and the plate was transferred to a QuantStudio3 Real-Time PCR System (Applied Biosystems by Thermo Fisher Scientific). […] The degree of protein melting in the presence of the compound compared to DMSO was calculated according to the following Equation 1. ΔTm=Tm (Temperature of Example compound)−Tm (Temperature of DMSO) [Equation 1]

Chain of Myt1-KD (Q99640 110-359): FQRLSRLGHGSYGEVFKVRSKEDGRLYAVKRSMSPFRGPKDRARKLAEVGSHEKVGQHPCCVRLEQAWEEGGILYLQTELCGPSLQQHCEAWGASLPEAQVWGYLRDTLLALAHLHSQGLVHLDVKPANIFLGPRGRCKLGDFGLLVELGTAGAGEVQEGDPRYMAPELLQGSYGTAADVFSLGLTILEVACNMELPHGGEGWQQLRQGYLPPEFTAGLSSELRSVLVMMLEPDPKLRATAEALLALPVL

Structure (SMILES)	ΔTm (° C.)	ΔTm at 100 µM [°C]
Cc1ccc(O)c(C)c1-n1c(N)c(C(=O)c2cc3sccc3[nH]2)c2nccnc21 (atropisomer, axis not shown) [Example 6, (R)-(6-amino-5-(3-hydroxy-2,6-dimethylphenyl)-5H-pyrrolo[2,3-b]pyrazin-7-yl)(4H-thieno[3,2-b]pyrrol-5-yl)methanone]	B (5 °C ≥ ΔTm (° C.))	–
Cc1ccc(O)c(C)c1-n1c(N)c(C(=O)c2cc3cc(CN4CCOCC4)ccc3[nH]2)c2nccnc21 (atropisomer, axis not shown) [Example 20, (R)-(6-amino-5-(3-hydroxy-2,6-dimethylphenyl)-5H-pyrrolo[2,3-b]pyrazin-7-yl)(5-(morpholinomethyl)-1H-indol-2-yl)methanone]	B (5 °C ≥ ΔTm (° C.))	–
Cc1cc2c(C(=O)c3nc4ccccc4[nH]3)c(N)n(-c3c(C)ccc(O)c3C)c2nc1C (atropisomer, axis not shown) [Example 12, (R)-(2-amino-1-(3-hydroxy-2,6-dimethylphenyl)-5,6-dimethyl-1H-pyrrolo[2,3-b]pyridin-3-yl)(1H-benzo[d]imidazol-2-yl)methanone]	B (5 °C ≥ ΔTm (° C.))	–
Cc1cc2c(C(=O)c3nc4ccccc4[nH]3)c(N)n(-c3c(C)ccc(O)c3C)c2nc1C (atropisomer, axis not shown) [Example 11, (S)-(2-amino-1-(3-hydroxy-2,6-dimethylphenyl)-5,6-dimethyl-1H-pyrrolo[2,3-b]pyridin-3-yl)(1H-benzo[d]imidazol-2-yl)methanone]	–	≥ 5
Cc1ccc(O)c(C)c1-n1c(N)c(C(=O)c2cc3ncccc3[nH]2)c2nccnc21 (atropisomer, axis not shown) [Example 26, (S)-(6-amino-5-(3-hydroxy-2,6-dimethylphenyl)-5H-pyrrolo[2,3-b]pyrazin-7-yl)(1H-pyrrolo[3,2-b]pyridin-2-yl)methanone]	–	≥ 5
Cc1ccc(O)c(C)c1-n1c(N)c(C(=O)c2cc3ccncc3[nH]2)c2nccnc21 (atropisomer, axis not shown) [Example 24, (S)-(6-amino-5-(3-hydroxy-2,6-dimethylphenyl)-5H-pyrrolo[2,3-b]pyrazin-7-yl)(1H-pyrrolo[2,3-c]pyridin-2-yl)methanone]	–	≤ 5
Cc1ccc(O)c(C)c1-n1c(N)c(C(=O)c2nc3ccccc3[nH]2)c2cccnc21 (atropisomer, axis not shown) [Example 4, (R)-(2-amino-1-(3-hydroxy-2,6-dimethylphenyl)-1H-pyrrolo[2,3-b]pyridin-3-yl)(1H-benzo[d]imidazol-2-yl)methanone]	–	≤ 5
Cc1ccc(O)c(C)c1-n1c(N)c(C(=O)c2cc3ncccc3[nH]2)c2nccnc21 (atropisomer, axis not shown) [Example 27, (R)-(6-amino-5-(3-hydroxy-2,6-dimethylphenyl)-5H-pyrrolo[2,3-b]pyrazin-7-yl)(1H-pyrrolo[3,2-b]pyridin-2-yl)methanone]	B (5 °C ≥ ΔTm (° C.))	–
Cc1ccc(O)c(C)c1-n1c(N)c(C(=O)c2cc3occc3[nH]2)c2nccnc21 (atropisomer, axis not shown) [Example 8, (R)-(6-amino-5-(3-hydroxy-2,6-dimethylphenyl)-5H-pyrrolo[2,3-b]pyrazin-7-yl)(4H-furo[3,2-b]pyrrol-5-yl)methanone]	B (5 °C ≥ ΔTm (° C.))	–
Cc1ccc(O)c(C)c1-n1c(N)c(C(=O)c2cc3ccccc3[nH]2)c2nccnc21 (atropisomer, axis not shown) [Example 2, (R)-(6-amino-5-(3-hydroxy-2,6-dimethylphenyl)-5H-pyrrolo[2,3-b]pyrazin-7-yl)(1H-indol-2-yl)methanone]	–	≤ 5
Cc1ccc(O)c(C)c1-n1c(N)c(C(=O)c2cc3occc3[nH]2)c2nc(C)c(C)nc21 (atropisomer, axis not shown) [Example 17, (S)-(6-amino-5-(3-hydroxy-2,6-dimethylphenyl)-2,3-dimethyl-5H-pyrrolo[2,3-b]pyrazin-7-yl)(4H-furo[3,2-b]pyrrol-5-yl)methanone]	–	≤ 5
